According to patent publication US11530244B2, “Cyclic polypeptides for PCSK9 inhibition” (priority 2018, dated 2022):
Where two headings read alike, the source gives them in different places. Starred links: 1 amine or outer side, 2 acyl side, 3 side chain; linkers in the order of their positions; H or OH if unused. Positions of bridges follow the written chain, without caps; N, C: chain ends. Non-standard residues stand in square brackets, D forms with d. Residues, ends and D or L forms follow the SMILES beside them. *: point of attachment. Naphthalene(2,6-diCH2) = c1cc2cc(C[*:2])ccc2cc1C[*:1]; Pro(trans-4-cHex) = O=C(O)[C@@H]1C[C@@H](C2CCCCC2)CN1; Trp(5-OH) = N[C@@H](Cc1c[nH]c2ccc(O)cc12)C(=O)O; Phe(4-COOH) = N[C@@H](Cc1ccc(C(=O)O)cc1)C(=O)O; Trp(5-F) = N[C@@H](Cc1c[nH]c2ccc(F)cc12)C(=O)O; X55 = O=C(CCCCCC(=O)[*:1])NCc1ccc(CCN[*:2])cc1; mXylylene(5-F) = Fc1cc(C[*:1])cc(C[*:2])c1; Pro(cis-4-F) = O=C(O)[C@@H]1C[C@H](F)CN1; αMeW = C[C@](N)(Cc1c[nH]c2ccccc12)C(=O)O; Lys(N3) = [N-]=[N+]=NCCCC[C@H](N)C(=O)O; Nle(6-COOH) = N[C@@H](CCCCC(=O)O)C(=O)O; X4 = O=C(CCSCc1cccc(CSCCN[*:1])c1)[*:2]; Phe(4-Me) = Cc1ccc(C[C@H](N)C(=O)O)cc1; mXylylene = c1cc(C[*:1])cc(C[*:2])c1; AEF = NCCOc1ccc(C[C@H](N)C(=O)O)cc1; X53 = C#CCCC[C@H](N[*:1])C(=O)[*:2]; X7 = O=C(Cc1ccc(CN[*:1])cc1)[*:2]; aThr = C[C@H](O)[C@H](N)C(=O)O; NMeL = CN[C@@H](CC(C)C)C(=O)O; αMeP = C[C@@]1(C(=O)O)CCCN1; dOrn = NCCC[C@@H](N)C(=O)O; X62 = O=C(C(F)F)*; Mpa = O=C(O)CCS

Tests used:
[1] = target: human PCSK9 / human LDLR EGFa domain interaction (Homo sapiens (Human), UniProt Q8NBP7); assay: TR-FRET assay of inhibition of the PCSK9-LDLR protein-protein interaction; type: binding; details: TR-FRET, 20 nM human PCSK9, 20 nM human LDLR EGFa domain, 2 hours room temperature; read-out: IC50
Experimental: A time-resolved fluorescence resonance energy (TR-FRET) assay was used to measure inhibition of the PCSK9-LDLR protein-protein interaction. Briefly, 20 nM avitag-biotinylated human PCSK9 was incubated with 20 nM his-tagged human LDLR EGFa domain in the presence of 5 nM LANCE Ulight Streptavidin (Perkin Elmer) and 5 nM europium-Anti-6×His (Perkin Elmer) for 2 hours covered at room temperature in buffer containing 50 mM HEPES, 150 mM NaCl, 5 mM CaCl2), 0.01% BSA and 0.01% Surfactant P20. Compounds were tested in dose-response and concentrations giving half-maximal inhibition calculated using a 4-parameter fit equation.

PCSK9 = PCSK9 (Homo sapiens (Human), UniProt Q8NBP7); assay: PCSK9 Alexa FRET Standard assay (displacement of AlexaFluor647 tagged cyclic peptide Reagent A); type: binding
Summary of the method: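 TR-FRET displacement: 0.5 nM biotinylated PCSK9 with 1.25 nM Strep-Eu and 20 nM AlexaFluor-tagged cyclic peptide (final) in 50 mM HEPES pH 7.4, 0.15 M NaCl, 5 mM CaCl2, 0.01% BSA, 0.01% P20, ≥2 h at room temperature. IC50 from sigmoidal fit, converted to Ki via peptide KD; falling Eu counts flagged false positives.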

[2] = PCSK9 Alexa FRET Standard assay, 0.5 nM PCSK9, 20 nM AF cyclic peptide Reagent A, read-out: IC50

Chain of human PCSK9 / human LDLR EGFa domain interaction (Q8NBP7 153-692): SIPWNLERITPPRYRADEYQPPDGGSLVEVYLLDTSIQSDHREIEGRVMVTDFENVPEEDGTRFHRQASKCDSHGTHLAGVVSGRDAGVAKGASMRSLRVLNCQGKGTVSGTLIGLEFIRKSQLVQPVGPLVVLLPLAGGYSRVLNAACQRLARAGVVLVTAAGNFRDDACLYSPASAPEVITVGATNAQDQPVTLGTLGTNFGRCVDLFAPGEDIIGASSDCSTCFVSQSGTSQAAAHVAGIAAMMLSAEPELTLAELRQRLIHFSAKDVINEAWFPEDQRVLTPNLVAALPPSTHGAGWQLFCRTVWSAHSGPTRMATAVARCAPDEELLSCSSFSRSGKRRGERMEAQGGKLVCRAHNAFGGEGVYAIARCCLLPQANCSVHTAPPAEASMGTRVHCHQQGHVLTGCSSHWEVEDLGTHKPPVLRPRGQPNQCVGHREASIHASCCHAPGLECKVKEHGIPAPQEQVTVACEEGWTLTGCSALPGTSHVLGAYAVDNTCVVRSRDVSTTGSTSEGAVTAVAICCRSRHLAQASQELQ
Chain of human PCSK9 / human LDLR EGFa domain interaction (Q8NBP7 31-152 partner): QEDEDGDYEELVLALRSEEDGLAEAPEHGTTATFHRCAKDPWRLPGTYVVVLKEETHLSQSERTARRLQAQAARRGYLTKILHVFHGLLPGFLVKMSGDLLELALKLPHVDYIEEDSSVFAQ
Chain of PCSK9 (Q8NBP7 153-692): as the sequence (Q8NBP7 153-692) above

C[C@@H]1NC(=O)[C@H](CCCCN)NC(=O)CCSCc2cccc(c2)CSC[C@@H](C(N)=O)NC(=O)[C@@H]2CCCN2C(=O)[C@H](Cc2ccc(O)cc2)NC(=O)[C@H](Cc2cnc[nH]2)NC(=O)[C@H](CC(=O)O)NC(=O)[C@H](Cc2c[nH]c3ccc(F)cc23)NC(=O)[C@H](Cc2c[nH]c3ccc(F)cc23)NC1=O [Compound 156] ([Mpa]KA[Trp(5-F)][Trp(5-F)]DHYPC-NH2; linker 1-10 via mXylylene)
IC50 [1]: 1000 to 12100 nM

C[C@@H](O)[C@@H]1NC(=O)[C@@H]2CCCN2C(=O)[C@H](Cc2c[nH]c3ccc(F)cc23)NC(=O)[C@H](Cc2c[nH]c3ccc(F)cc23)NC(=O)CNC(=O)[C@H](CCCCN)NC(=O)CCSCc2cccc(c2)CSC[C@@H](C(N)=O)NC(=O)[C@]2(C)CCCN2C(=O)[C@H](Cc2ccc(O)cc2)NC1=O [Compound 014] ([Mpa]KG[Trp(5-F)][Trp(5-F)]PTY[αMeP]C-NH2; linker 1-10 via mXylylene)
IC50 [1]: 100 to 1000 nM

COc1ccc(C[C@@H]2NC(=O)[C@@H](CC(C)C)NC(=O)[C@H](CC(C)C)NC(=O)CCSCc3cccc(c3)CSC[C@@H](C(N)=O)NC(=O)[C@]3(C)CCCN3C(=O)[C@H](Cc3ccc(OC)cc3)NC(=O)[C@H]([C@@H](C)OC)NC(=O)[C@H](CC(C)C)N(C)C(=O)[C@H](Cc3ccc(OC)cc3)NC2=O)cc1 [Compound 037] ([Mpa]L[dL]Y(Me)Y(Me)[NMeL]T(Me)Y(Me)[αMeP]C-NH2; linker 1-10 via mXylylene)
IC50 [1]: 100 to 1000 nM

C[C@H]1NC(=O)[C@H](Cc2ccc(O)cc2)NC(=O)[C@H](Cc2cnc[nH]2)NC(=O)[C@H](CC(=O)O)NC(=O)[C@H](Cc2c[nH]c3ccc(F)cc23)NC(=O)[C@H](Cc2c[nH]c3ccc(F)cc23)NC(=O)CNC(=O)[C@H](CCCCN)NC(=O)CCSCc2cccc(c2)CSC[C@@H](C(N)=O)NC1=O [Compound 320] ([Mpa]KG[Trp(5-F)][Trp(5-F)]DHY[dA]C-NH2; linker 1-10 via mXylylene)
IC50 [1]: 21000 to 50000 nM

CC(=O)N[C@H]1CSCc2cccc(c2)CSC[C@@H](C(N)=O)NC(=O)[C@@H]2CCCN2C(=O)[C@H](Cc2ccc(O)cc2)NC(=O)[C@H](Cc2c[nH]cn2)NC(=O)[C@H](CC(=O)O)NC(=O)[C@H](Cc2c[nH]c3ccc(F)cc23)NC(=O)[C@H](Cc2c[nH]c3ccccc23)NC(=O)CNC(=O)[C@H](CCCCN)NC1=O [Compound 176] (Ac-CKGW[Trp(5-F)]DHYPC-NH2; linker 1-10 via mXylylene)
IC50 [1]: 21000 to 50000 nM

C[C@@]1(Cc2c[nH]c3ccccc23)NC(=O)CNC(=O)[C@H](CCCCN)NC(=O)CCSCc2cccc(c2)CSC[C@@H](C(N)=O)NC(=O)[C@@H]2CCCN2C(=O)[C@H](Cc2ccc(O)cc2)NC(=O)[C@H](Cc2c[nH]cn2)NC(=O)[C@H](CC(=O)O)NC(=O)[C@H](Cc2c[nH]c3ccc(F)cc23)NC1=O [Compound 212] ([Mpa]KG[αMeW][Trp(5-F)]DHYPC-NH2; linker 1-10 via mXylylene)
IC50 [1]: 100 to 1000 nM

NCCCC[C@@H]1NC(=O)CCSCc2cccc(c2)CSC[C@@H](C(N)=O)NC(=O)[C@@H]2C[C@@H](C3CCCCC3)CN2C(=O)[C@H](Cc2ccc(O)cc2)NC(=O)[C@H](Cc2c[nH]cn2)NC(=O)[C@H](CC(=O)O)NC(=O)[C@H](Cc2c[nH]c3ccc(F)cc23)NC(=O)[C@H](Cc2c[nH]c3ccc(F)cc23)NC(=O)CNC1=O [Compound 304] ([Mpa]KG[Trp(5-F)][Trp(5-F)]DHY[Pro(trans-4-cHex)]C-NH2; linker 1-10 via mXylylene)
IC50 [1]: 21000 to 50000 nM

Cc1ccc(C[C@@H]2NC(=O)[C@H](Cc3c[nH]cn3)NC(=O)[C@H](CC(=O)O)NC(=O)[C@H](Cc3c[nH]c4ccc(F)cc34)NC(=O)[C@H](Cc3c[nH]c4ccc(F)cc34)NC(=O)[C@@H](C)NC(=O)[C@H](CCCCN)NC(=O)CCSCc3cccc(c3)CSCCNC(=O)[C@]3(C)CCCN3C2=O)cc1 [Compound 299] (cyclo(DH[Phe(4-Me)][αMeP][X4]K[dA][Trp(5-F)][Trp(5-F)]))
IC50 [1]: 100 to 1000 nM

NCCCC[C@@H]1NC(=O)CCSCc2ccc3cc(ccc3c2)CSC[C@@H](C(N)=O)NC(=O)[C@@H]2CCCN2C(=O)[C@H](Cc2ccc(O)cc2)NC(=O)[C@H](Cc2c[nH]cn2)NC(=O)[C@H](CC(=O)O)NC(=O)[C@H](Cc2c[nH]c3ccc(F)cc23)NC(=O)[C@H](Cc2c[nH]c3ccc(F)cc23)NC(=O)CNC1=O [Compound 203] ([Mpa]KG[Trp(5-F)][Trp(5-F)]DHYPC-NH2; linker 1-10 via Naphthalene(2,6-diCH2))
IC50 [1]: 1000 to 12100 nM

COc1ccc(C[C@@H]2NC(=O)[C@H]([C@@H](C)O)NC(=O)[C@@H]3CCCN3C(=O)[C@H](Cc3c[nH]c4ccc(F)cc34)NC(=O)[C@H](Cc3c[nH]c4ccc(F)cc34)NC(=O)[C@@H](C)NC(=O)[C@H](CCCCN)NC(=O)CCSCc3cc(F)cc(c3)CSC[C@@H](C(N)=O)NC(=O)[C@]3(C)CCCN3C2=O)cc1 [Compound 041] ([Mpa]K[dA][Trp(5-F)][Trp(5-F)]PTY(Me)[αMeP]C-NH2; linker 1-10 via mXylylene(5-F))
IC50 (PCSK9; [2]): 21000 to 50000 nM

CC(C)C[C@H]1C(=O)N[C@@H](Cc2ccc(O)cc2)C(=O)N2CCC[C@@]2(C)C(=O)N[C@H](C(N)=O)CSCc2cccc(c2)CSCCC(=O)N[C@@H](CCCCN)C(=O)NCC(=O)N[C@@H](Cc2c[nH]c3ccc(F)cc23)C(=O)N[C@@H](Cc2c[nH]c3ccc(F)cc23)C(=O)N2CCC[C@@]23CCN1C3=O [Compound 127]
IC50 (PCSK9; [2]): 100 to 1000 nM

C[C@@]12CCCN1C(=O)[C@H](Cc1ccc(O)cc1)NC(=O)[C@H](Cc1cnc[nH]1)NC(=O)[C@H](CC(=O)O)NC(=O)[C@H](Cc1c[nH]c3ccc(O)cc13)NC(=O)[C@H](Cc1c[nH]c3ccc(O)cc13)NC(=O)CNC(=O)[C@H](CCCCN)NC(=O)CCSCc1cccc(c1)CSC[C@@H](C(N)=O)NC2=O [Compound 415] ([Mpa]KG[Trp(5-OH)][Trp(5-OH)]DHY[αMeP]C-NH2; linker 1-10 via mXylylene)
IC50 (PCSK9; [2]): 0.11 to 100 nM

C[C@@]12CCCN1C(=O)[C@H](Cc1ccc(O)cc1)NC(=O)[C@H](Cc1cnc[nH]1)NC(=O)[C@H](CC(=O)O)NC(=O)[C@H](Cc1c[nH]c3ccc(F)cc13)NC(=O)[C@H](Cc1c[nH]c3ccc(F)cc13)NC(=O)CNC(=O)[C@@H](CCCN)NC(=O)CCSCc1cccc(c1)CSC[C@@H](C(N)=O)NC2=O [Compound 356] ([Mpa][dOrn]G[Trp(5-F)][Trp(5-F)]DHY[αMeP]C-NH2; linker 1-10 via mXylylene)
IC50 (PCSK9; [2]): 21000 to 50000 nM

COc1ccc(C[C@@H]2NC(=O)[C@H](Cc3cnc[nH]3)NC(=O)[C@H](CC(=O)O)NC(=O)[C@H](Cc3c[nH]c4ccc(F)cc34)NC(=O)[C@H](Cc3c[nH]c4ccc(F)cc34)NC(=O)[C@@H](C)NC(=O)[C@H](CCCCC(=O)O)NC(=O)CCSCc3cccc(c3)CSCCNC(=O)[C@]3(C)CCCN3C2=O)cc1 [Compound 425] (cyclo(DHY(Me)[αMeP][X4][Nle(6-COOH)][dA][Trp(5-F)][Trp(5-F)]))
IC50 (PCSK9; [2]): 0.11 to 100 nM

COc1ccc(C[C@@H]2NC(=O)[C@H]([C@@H](C)O)NC(=O)[C@@H]3C[C@H](F)CN3C(=O)[C@H](Cc3c[nH]c4ccc(F)cc34)NC(=O)[C@H](Cc3c[nH]c4ccc(F)cc34)NC(=O)[C@@H](C)NC(=O)[C@H](CCCCN)NC(=O)[C@@H](NC(=O)C(F)F)CC(=O)NCCOc3ccc(cc3)C[C@@H](C(N)=O)NC(=O)[C@]3(C)CCCN3C2=O)cc1 [Compound 113] (X62-DK[dA][Trp(5-F)][Trp(5-F)][Pro(cis-4-F)]TY(Me)[αMeP][AEF]-NH2; lactam 1-10)
IC50 (PCSK9; IC50, PCSK9 Alexa FRET Standard assay, 0.5 nM PCSK9, 20 nM AF cyclic peptide Reagent A): 21000 to 50000 nM

COc1ccc(C[C@@H]2NC(=O)[C@H](Cc3cnc[nH]3)NC(=O)[C@H](CC(=O)O)NC(=O)[C@H](Cc3c[nH]c4ccc(F)cc34)NC(=O)[C@H](Cc3c[nH]c4ccc(F)cc34)NC(=O)[C@H](C)NC(=O)CCCCCC(=O)NCc3ccc(cc3)CCNC(=O)[C@]3(C)CCCN3C2=O)cc1 [Compound 470] (A[Trp(5-F)][Trp(5-F)]DHY(Me)[αMeP]; linker N-C via X55)
IC50 (PCSK9; [2]): 0.11 to 100 nM

C#CCCC[C@@H]1NC(=O)[C@H](Cc2c[nH]c3ccc(F)cc23)NC(=O)[C@H](CCCCN=[N+]=[N-])NC(=O)[C@@H](C)NC(=O)[C@H](CCCCN)NC(=O)CCSCc2cccc(c2)CSCCNC(=O)[C@]2(C)CCCN2C(=O)[C@H](Cc2ccc(OC)cc2)NC(=O)[C@H]([C@H](C)O)NC1=O [Compound 074] (cyclo(K[dA][Lys(N3)][Trp(5-F)][X53][aThr]Y(Me)[αMeP][X4]))
IC50 (PCSK9; IC50): 21000 to 50000 nM

COc1ccc(C[C@@H]2NC(=O)[C@@H]([C@H](C)O)NC(=O)[C@@H]3C[C@H](F)CN3C(=O)[C@H](Cc3c[nH]c4ccc(F)cc34)NC(=O)[C@H](Cc3c[nH]c4ccc(F)cc34)NC(=O)[C@@H](C)NC(=O)Cc3ccc(cc3)CNC(=O)c3ccc(cc3)C[C@@H](C(N)=O)NC(=O)[C@]3(C)CCCN3C2=O)cc1 [Compound 080] ([X7][dA][Trp(5-F)][Trp(5-F)][Pro(cis-4-F)][dT]Y(Me)[αMeP][Phe(4-COOH)]-NH2; lactam N-9)
IC50 (PCSK9; [2]): 1000 to 12100 nM
